What was measured:
Assay in all cases: relative viability (nuclei count vs DMSO), 5 days (fraction); higher = more cells survive
[1] = compound: C1/C(=C\C2=CC=CS2)/C(=O)/C(=C/C3=CC=CS3)/C1 + COc1cc2c(Oc3ccc(NC(=O)C4(C(=O)Nc5ccc(F)cc5)CC4)cc3F)ccnc2cc1OCCCN1CCOCC1 [Foretinib] (partner 0.25 µM)
Procedure, shortened: (§1)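 Lung cancer cell lines in 1536-well plates were dosed by pin tool the day after seeding, either with one drug alone or with a fixed anchor-drug dose plus five library-drug doses (not always all listed) in √10 steps. After 5 days, cells were fixed and their nuclei stained in one step (final 0.05% Triton X-100, 1% formaldehyde, 1 ug/ml Hoechst), then counted on 4× images. Relative viability is the nuclei count in treated wells divided by that in vehicle wells. Values are medians of duplicate plates.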

[2] = compound: C1/C(=C\C2=CC=CS2)/C(=O)/C(=C/C3=CC=CS3)/C1 + CS(=O)(=O)CCNCc1ccc(-c2ccc3ncnc(Nc4ccc(OCc5cccc(F)c5)c(Cl)c4)c3c2)o1 [Lapatinib] (partner 2 µM)
Procedure, shortened: as §1

TPCA-1 + Tozasertib = compound: C1=CC(=CC=C1C2=CC(=C(S2)NC(=O)N)C(=O)N)F [TPCA-1] + Cc1cc(Nc2cc(N3CCN(C)CC3)nc(Sc3ccc(NC(=O)C4CC4)cc3)n2)n[nH]1 [Tozasertib] (partner 0.1 µM)
Procedure, shortened: as §1

TPCA-1 + Decitabine = compound: C1=CC(=CC=C1C2=CC(=C(S2)NC(=O)N)C(=O)N)F [TPCA-1] + Nc1ncn([C@H]2C[C@H](O)[C@@H](CO)O2)c(=O)n1 [Decitabine] (partner 2 µM)
Procedure, shortened: as §1

Cell Line	relative viability ([1]; first compound 0.2 µM)	relative viability ([1]; first compound 0.6325 µM)	relative viability ([1]; first compound 2 µM)	relative viability ([1]; first compound 6.325 µM)	relative viability ([1]; first compound 20 µM)	relative viability ([2]; first compound 0.2 µM)	relative viability ([2]; first compound 0.6325 µM)	relative viability ([2]; first compound 2 µM)	relative viability ([2]; first compound 6.325 µM)	relative viability ([2]; first compound 20 µM)	relative viability (TPCA-1 + Tozasertib; first compound 0.04 µM)	relative viability (TPCA-1 + Tozasertib; first compound 0.1265 µM)	relative viability (TPCA-1 + Tozasertib; first compound 0.4 µM)	relative viability (TPCA-1 + Tozasertib; first compound 1.265 µM)	relative viability (TPCA-1 + Tozasertib; first compound 4 µM)	relative viability (TPCA-1 + Decitabine; first compound 0.04 µM)	relative viability (TPCA-1 + Decitabine; first compound 0.1265 µM)	relative viability (TPCA-1 + Decitabine; first compound 0.4 µM)	relative viability (TPCA-1 + Decitabine; first compound 1.265 µM)	relative viability (TPCA-1 + Decitabine; first compound 4 µM)
LOU-NH91	0.953	0.921	0.919	0.827	0.944	0.744	0.821	0.782	0.607	0.802	0.769	0.57	0.639	0.602	0.423	0.835	0.749	0.793	0.792	0.776
LU99A	0.794	0.853	1.01	0.753	0.89	0.914	0.958	1.23	0.785	0.95	0.276	0.276	0.226	0.242	0.199	0.923	0.76	0.901	0.834	0.377
LXF-289	0.982	0.959	0.973	0.994	0.98	0.926	0.915	0.886	0.792	0.91	0.248	0.203	0.201	0.169	0.122	0.384	0.345	0.395	0.403	0.34
NCI-H23	0.973	1.13	1.07	0.851	0.991	0.918	1.4	1.44	0.861	1.12	0.303	0.348	0.332	0.308	0.248	0.319	0.277	0.289	0.317	0.262
NCI-H322M	1	1.06	1.1	0.855	0.874	0.619	0.648	0.657	0.568	0.582	0.523	0.464	0.462	0.416	0.303	0.729	0.638	0.74	0.682	0.486
NCI-H358	0.668	0.742	0.761		0.631	0.435	0.482	0.475	0.459	0.424	0.126	0.113	0.108	0.105	0.0839	0.224	0.215	0.217	0.214	0.153
NCI-H460	1.02	1.06	1.02	0.881	0.99	1.07	1.2	0.929		0.893	0.473	0.69	0.419	0.448	0.0397	0.521	0.461		0.453	0.476
NCI-H520	0.842	0.93	0.804	0.711	0.632	0.912	0.896	0.786	0.817	0.763	0.445	0.395	0.448	0.498	0.319	0.522	0.35	0.573	0.516	0.331
NCI-H596	0.895	0.847	0.872	0.753	0.905	1.13	1.03	1.1	1	1.02	0.834	0.689	0.916	0.86	0.759	1.02	0.997	1.07	1.1	1.07
NCI-H647	1.21	1.22	1.11	0.948	1.21	1.13	1.26	1.28	0.763	1	0.262	0.198	0.348	0.129	0.164	0.475	0.433	0.385	0.4	0.346
NCI-H650	1.02	0.926	0.933	0.945	0.999	0.944	1.17	1.05	0.925	0.989	0.707	0.708	0.734	0.546	0.256	0.347	0.359	0.338	0.331	0.3
NCI-H661	1.05	1.02	1.02	0.993	1	0.465	0.49	0.507	0.475	0.516	0.376	0.349	0.366	0.345	0.339	0.533	0.58	0.597	0.602	0.436
NCI-H727	0.907	0.802	1.1	0.815	0.96	0.735	0.877	1.02	0.701	0.752	0.558	0.719	0.693	0.661	0.492	0.946	0.787	0.943	0.788	0.576
NCI-H838	0.998	1.1	1.04	0.812	0.968	1.01	0.889	0.994	0.926	0.866	0.257	0.232	0.249	0.217	0.223	0.466	0.442	0.532	0.44	0.44
NCI-H1355	1.01	0.877	0.995	0.913	0.954	0.964	0.951	1.04	0.908	0.911	0.595	0.574	0.597	0.461	0.254	0.365	0.35	0.342	0.346	0.354
NCI-H1395	0.992	0.945	1.18	0.861	1.01	1.04	1.13	1.11	0.886	1.15	0.906	0.69	0.766	0.657	0.61	0.791	0.694	0.753	0.797	0.695
